Data on 35 compounds can be found in publication PMC8735877, “Flavonoids as tyrosinase inhibitors in in silico and in vitro models: basic framework of SAR using a statistical modelling approach” (Journal of Enzyme Inhibition and Medicinal Chemistry, 2021).

In assay [1] the target is T1, mushroom tyrosinase (Agaricus bisporus, UniProt C7FF04). The assay can be described thus: Tyrosinase inhibition assay (L-DOPA oxidation, absorbance at 492 nm).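 Further: enzyme in phosphate buffer, compounds preincubated with enzyme, inhibition computed against blank absorbance, IC50 fitted by nonlinear regression, runs in triplicate.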 The class given is biochemical.
Method: The inhibitory effect on mushroom tyrosinase (TYase) was evaluated using a method reported in the literature with some modifications[21]. This assay was performed in PBS (100 mM, pH = 6.8 in 25 °C). Test samples 1–44 (80 µL) were preincubated with TYase solution (40 µL; 250 U/mL) at 25 °C for 10 min. Then, L-DOPA (80 µL; 0.19 mg/mL) was added, and after an additional 10 min at 25 °C, the absorbance was measured at 492 nm. […] The inhibitory effect was calculated as follows: TYaseInh (%) = [(B−C)/C] x 100 where B and C are the absorbances of the blank and the compounds, respectively. […] All tests were performed in triplicate.
Statistical analysis for IC50 calculations was performed using nonlinear regression using GraphPad Prism 9 (Trail, GraphPad Software, La Jolla, CA, USA). Data were collected as mean ± SD (n = 3), and the significance of differences was analysed using one-way analysis of variance (ANOVA).
The target in assay [2] is T1, mushroom tyrosinase. The assay can be described thus: Tyrosinase inhibition kinetic analysis (Lineweaver-Burk and Dixon plots). The class given is biochemical. As to conditions: for Type of inhibition: Lineweaver-Burk plots.
Method: The enzyme reaction kinetics of these compounds were measured by constructing Lineweaver-Burk plots of inverse velocities (1/V), contrary to the inverse of substrate concentration (1/S)[22]^,[23]. Preincubations and measurement times were performed using the same protocol as described above. The enzyme concentration (250 U/mL) was kept constant in the presence of substrate solutions (L-DOPA) between 0.25 and 2 mM in all kinetic studies. The inhibitor concentrations for all test compounds were 0, 25, and 50 µM. The inhibitory types and inhibitory constant (Ki) values were described by 1/V versus inhibitor concentration plots (Dixon plot).
The mark [3] stands for this setting: substrate L-DOPA, PBS pH 6.8, 25 °C, highest tested concentration 500 µM, mean ± SD, n = 3, read-out: IC50.
Where [4] appears, read: Dixon plot, L-DOPA 0.25-2 mM, inhibitor 0, 25, 50 µM, ± SD, triplicate, read-out: Ki.
[5] abbreviates: L-DOPA 0.25-2 mM, inhibitor 0, 25, 50 µM.

Where two headings read alike, the source gives them in different places.

T1 sequence (C7FF04 1-392): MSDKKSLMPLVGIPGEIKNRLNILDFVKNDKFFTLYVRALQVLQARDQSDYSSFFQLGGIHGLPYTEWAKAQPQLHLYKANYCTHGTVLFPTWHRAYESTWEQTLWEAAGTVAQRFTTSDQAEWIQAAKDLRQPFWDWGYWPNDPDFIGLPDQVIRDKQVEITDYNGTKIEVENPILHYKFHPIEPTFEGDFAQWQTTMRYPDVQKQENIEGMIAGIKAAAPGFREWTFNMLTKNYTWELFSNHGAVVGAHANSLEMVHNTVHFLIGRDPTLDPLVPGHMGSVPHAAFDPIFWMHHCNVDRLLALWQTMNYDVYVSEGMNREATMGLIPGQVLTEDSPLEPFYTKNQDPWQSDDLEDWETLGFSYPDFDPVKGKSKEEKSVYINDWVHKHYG

Broadly, the IC50 is the midpoint of a concentration-inhibition curve. On mushroom tyrosinase [1], `O=c1cc(-c2ccc(O)cc2)oc2cc(OC3OC(CO)C(O)C(O)C3O)cc(O)c12` (stereo not drawn) [Compound 13, apigenin 7-O-glucoside] came in with an IC50 of 323.2 ± 1.48 µM.

On to `COc1cc(-c2cc(=O)c3c(O)cc(O)c(C4OC[C@@H](O)[C@H](O)[C@H]4OC4O[C@H](CO)[C@@H](OC(C)=O)[C@H](O)[C@H]4O)c3o2)ccc1OC(C)=O` (stereo partly drawn) [Compound 25, 5,7-dihydroxy-3′-methoxy-4′-acetoxyflavone-8-C-xylopyranoside-2"-O-(4′"-acetoxy)-glucoside], for which the IC50 at mushroom tyrosinase [1] (setting [3]) was over 500 µM.

`COc1ccc(C2CC(=O)c3c(O)cc(OC)cc3O2)cc1` (stereo not drawn) [Compound 2, 7,4′-dimethoxynaringenin] gave an IC50 at mushroom tyrosinase [1] of over 500 µM.

As to `O=C(O)C1OC(Oc2c(-c3ccc(O)cc3)oc3cc(O)cc(O)c3c2=O)C(O)C(O)C1O` (stereo not drawn) [Compound 30, kaempferol 3-O-glucuronide], the IC50 at mushroom tyrosinase [1] (setting [3]) was found to be 270 ± 1.23 µM.

Turning to `O=c1c(O)c(-c2cc(O)c(O)c(O)c2)oc2cc(O)cc(O)c12` [Compound 42, myricetin], the IC50 against mushroom tyrosinase [1] turned out to be 100 ± 1.86 µM.

Broadly, the Ki is a dissociation constant, usually derived from enzyme kinetics or from competition with a known ligand. As to `O=c1cc(-c2ccc(O)c(O)c2)oc2cc(O)cc(O)c12` [Compound 17, luteolin], the IC50 at mushroom tyrosinase [1] (setting [3]) amounted to 58.9 ± 0.78 µM. In addition, the Ki on mushroom tyrosinase [2] (setting [4]) came out at 11.3 ± 0.77 µM. Moreover, the Type of inhibition result on mushroom tyrosinase [2] (setting [5]) is on record as “non-competitive”.

Turning to `O=C1CC(c2ccc(O)c(O)c2)Oc2c1ccc(O)c2O` (stereo not drawn) [Compound 4, isookanin], the IC50 at mushroom tyrosinase [1] (setting [3]) amounted to 58.43 ± 0.38 µM. Besides, the Ki at mushroom tyrosinase [2] (setting [4]) came out at 18.6 ± 0.53 µM. For the same compound, the Type of inhibition entry on mushroom tyrosinase [2] (setting [5]) is given as “non-competitive”.

At mushroom tyrosinase [1], `O=c1c(-c2ccc(O)cc2)coc2cc(O)ccc12` [Compound 43, daidzein] displayed an IC50 of over 500 µM.

For `COc1ccccc1-c1cc(=O)c2c(O)cccc2o1` [Compound 8, 5-hydroxy-2′-methoxyflavone], the IC50 against mushroom tyrosinase [1] is 122.1 ± 1.19 µM.

On to `COc1ccc(C2CC(=O)c3c(O)cc(OC4OC(COC5OC(C)C(O)C(O)C5O)C(O)C(O)C4O)cc3O2)cc1O` (stereo not drawn) [Compound 6, hesperetin 7-O-rutinoside], for which 131 ± 1.4 µM corresponded to half-maximal inhibition against mushroom tyrosinase [1] (IC50).

`COc1ccc([C@@H]2CC(=O)c3c(O)cc(O)cc3O2)cc1O` [Compound 5, hesperetin] gave a half-maximal inhibitory concentration (IC50) on mushroom tyrosinase [1] of 237 ± 2.63 µM.

Consider `O=c1c(O[C@@H]2O[C@H](CO)[C@@H](O)[C@H](O)[C@H]2O)c(-c2ccc(O)cc2)oc2cc(O)cc(O)c12` [Compound 29, kaempferol 3-O-glucoside], for which the IC50 on mushroom tyrosinase [1] was 481.5 ± 1.73 µM.

`O=c1cc(-c2ccc(O)c(O)c2)oc2cc(OC3OC(CO)C(O)C(O)C3O)cc(O)c12` (stereo not drawn) [Compound 18, luteolin 7-O-glucoside] had an IC50 against mushroom tyrosinase [1] of 415 ± 2.38 µM.

As for `O=C(/C=C/c1ccc(O)cc1)OC[C@H]1O[C@@H](Oc2c(-c3ccc(O)cc3)oc3cc(O)cc(O)c3c2=O)[C@H](O)[C@@H](O)[C@@H]1O` [Compound 32, kaempferol 3-O-(6″-O-trans-p-coumaroyl)-glucoside], the IC50 against mushroom tyrosinase [1] amounted to 78.5 ± 0.84 µM. This compound also displayed an inhibitory constant (Ki) on mushroom tyrosinase [2] of 9.83 ± 0.57 µM. In addition, the Type of inhibition entry on mushroom tyrosinase [2] (setting [5]) is reported as “competitive”.

At mushroom tyrosinase [1], `COc1ccc(-c2cc(=O)c3c(O)cc(O)cc3o2)cc1` [Compound 16, acacetin] displayed a half-inhibitory concentration (IC50) of 207.9 ± 1.35 µM.

Regarding `O=c1c(O)c(-c2ccc(O)c(O)c2)oc2cc(O)cc(O)c12` [Compound 35, quercetin], at mushroom tyrosinase [2] (setting [5]), the Type of inhibition entry is on record as “competitive”.

Take `O=c1c(O)c(-c2ccc(O)cc2)oc2cc(O)cc(O)c12` [Compound 26, kaempferol]: the IC50 at mushroom tyrosinase [1] (setting [3]) turned out to be 65.1 ± 1.09 µM. Also, the Ki at mushroom tyrosinase [2] (setting [4]) worked out at 40.2 ± 0.46 µM. The Type of inhibition result on mushroom tyrosinase [2] (setting [5]) was “competitive”.

Turning to `COc1ccc(-c2oc3c(CC=C(C)C)c(O[C@@H]4O[C@H](CO)[C@@H](O)[C@H](O)[C@H]4O)cc(O)c3c(=O)c2O[C@@H]2O[C@@H](C)[C@H](O)[C@@H](O)[C@H]2O)cc1` [Compound 34, icariin], the IC50 at mushroom tyrosinase [1] (setting [3]) came out at 150 ± 1.84 µM.

For `C[C@@H]1O[C@@H](OC[C@H]2O[C@@H](Oc3c(-c4ccc(O)c(O)c4)oc4cc(O)cc(O)c4c3=O)[C@H](O)[C@@H](O)[C@@H]2O)[C@H](O)[C@H](O)[C@H]1O` [Compound 37, quercetin 3-O-rutinoside], inhibition at mushroom tyrosinase [1] was half-maximal at 141.7 ± 1.3 µM (IC50).

For the compound `COc1cccc(OC)c1-c1cc(=O)c2c(O)cccc2o1` [Compound 9, 5-hydroxy-2′,6′-dimethoxyflavone], at mushroom tyrosinase [1], 127 ± 1.4 µM corresponded to half-maximal inhibition (IC50).

With `CC1OC(OCC2OC(Oc3c(-c4ccc(O)c(O)c4)oc4cc(OC5OC(CO)C(O)C(O)C5O)cc(O)c4c3=O)C(O)C(O)C2O)C(O)C(O)C1O` (stereo not drawn) [Compound 38, quercetin 3-O-rutinoside-7-O-glucoside], the concentration for half-maximal inhibition (IC50) at mushroom tyrosinase [1] (setting [3]) came to 148 ± 1.57 µM.

As for `O=C(O)C1OC(Oc2c(-c3ccc(O)c(O)c3)oc3cc(O)cc(O)c3c2=O)C(O)C(O)C1O` (stereo not drawn) [Compound 36, quercetin 3-O-glucuronide], half-maximal inhibition against mushroom tyrosinase [1] (IC50) required 220.1 ± 1.14 µM.

Take `O=c1cc(-c2ccc(O)c(O)c2)oc2cc(O)c([C@@H]3O[C@H](CO)[C@@H](O)[C@H](O)[C@H]3O)c(O)c12` [Compound 20, luteolin-6-C-glucoside]: inhibition at mushroom tyrosinase [1] was half-maximal at 133 ± 2.32 µM (IC50).

With `COc1cc(O)c2c(=O)c(OC)c(-c3ccc(O)cc3)oc2c1` [Compound 28, kumatakenin], the IC50 at mushroom tyrosinase [1] (setting [3]) was over 500 µM.

Take `O=c1cc(-c2ccc(O)cc2)oc2cc(O)cc(O)c12` [Compound 12, apigenin]: at mushroom tyrosinase [1], the IC50 turned out to be 160.5 ± 1.44 µM.

With `O=c1cc(-c2ccc(O)cc2)oc2c([C@@H]3O[C@H](CO)[C@@H](O)[C@H](O)[C@H]3O)c(O)cc(O)c12` [Compound 14, apigenin 8-C-glucoside], the 50% inhibitory concentration (IC50) on mushroom tyrosinase [1] is 133 ± 1.83 µM.

Regarding `COc1ccc(-c2oc3cc(O)cc(O)c3c(=O)c2OC)cc1` [Compound 33, ermanin], the IC50 at mushroom tyrosinase [1] (setting [3]) worked out at 231.7 ± 1.17 µM.

On to `O=c1c(-c2ccc(O)cc2)coc2cc(O)cc(O)c12` [Compound 44, genistein], for which, on mushroom tyrosinase [1], the half-maximal inhibitory concentration (IC50) is over 500 µM.

In the case of `CC(=O)Oc1ccc(-c2cc(=O)c3c(O)cc(O)c(C4OC[C@@H](O)[C@H](O)[C@H]4OC4O[C@H](CO)[C@@H](O)[C@H](O)[C@H]4O)c3o2)cc1O` (stereo partly drawn) [Compound 23, 5,7,3′-trihydroxy-4′-acetoxyflavone-8-C-xylopyranoside-2"-O-glucoside], at mushroom tyrosinase [1] (setting [3]), the IC50 is over 500 µM.

As to `O=c1c(O)c(-c2cc(O)c(O)c(O)c2)oc2cc(O)ccc12` [Compound 41, robinetin], at mushroom tyrosinase [1], half-maximal inhibition (IC50) was put at 63.1 ± 0.85 µM. This compound also gave a Ki on mushroom tyrosinase [2] of 27.4 ± 0.62 µM. Besides, the Type of inhibition entry at mushroom tyrosinase [2] (setting [5]) is listed as “non-competitive”.

Consider `O=c1c(OC2OC(CO)C(O)C(O)C2O)c(-c2ccc(O)cc2)oc2cc(O)cc(O)c12` (stereo not drawn) [Compound 31, kaempferol 3-O-galactoside], for which the midpoint of inhibition at mushroom tyrosinase [1], the IC50, lay at 186.9 ± 1.09 µM.

In the case of `COc1ccc(-c2cc(=O)c3c(O)cc(O)c(C4OC[C@@H](O)[C@H](O)[C@H]4OC4O[C@H](CO)[C@@H](O)[C@H](O)[C@H]4O)c3o2)cc1O` (stereo partly drawn) [Compound 22, 5,7,3′-trihydroxy-4′-methoxyflavone-8-C-xylopyranoside-2"-O-glucoside], on mushroom tyrosinase [1] (setting [3]), the IC50 is over 500 µM.

In turn, `O=c1cc(-c2ccccc2)oc2cc(O)cc(O)c12` [Compound 11, chrysin] had an IC50 against mushroom tyrosinase [1] of 129.4 ± 1.13 µM.

For the compound `O=c1cc(-c2ccccc2)oc2cccc(O)c12` [Compound 7, 5-hydroxyflavone], the IC50 against mushroom tyrosinase [1] amounted to 120 ± 1.48 µM.

`COc1c(O)cc(O)c2c(=O)c(O)c(-c3ccc(O)cc3)oc12` [Compound 27, 8-methoxykaempferol]: at mushroom tyrosinase [1] (setting [3]), the IC50 was found to be 290.5 ± 1.19 µM.
